From patent US12371454B2, “Cyclic peptide compound having Kras inhibitory action” (priority 2019, dated 2025)
Starred links: 1 amine or outer side, 2 acyl side, 3 side chain; linkers in the order of their positions; H or OH if unused. Positions of bridges follow the written chain, without caps; N, C: chain ends. Non-standard residues stand in square brackets, D forms with d. Residues, ends and D or L forms follow the SMILES beside them. *: point of attachment. hPhe(3-Cl-4-CF3) = N[C@@H](CCc1ccc(C(F)(F)F)c(Cl)c1)C(=O)O; hPhe(3-F,4-CF3) = N[C@@H](CCc1ccc(C(F)(F)F)c(F)c1)C(=O)O; NMePhe(4-CF3) = CN[C@@H](Cc1ccc(C(F)(F)F)cc1)C(=O)O; NMedβ3hAla = C[C@H](CC(=O)[*:2])N(C)[*:1]; mXylylene = c1cc(C[*:1])cc(C[*:2])c1; oXylylene = c1ccc(C[*:2])c(C[*:1])c1; NMeGly(cBu) = CN[C@H](C(=O)O)C1CCC1; NMeCha = CN[C@@H](CC1CCCCC1)C(=O)O; cisHyp = O=C(O)[C@@H]1C[C@H](O)CN1; Hyp = O=C(O)[C@@H]1C[C@@H](O)CN1; NMeChg = CN[C@H](C(=O)O)C1CCCCC1; NMeD = CN[C@@H](CC(=O)O)C(=O)O; NMeL = CN[C@@H](CC(C)C)C(=O)O; NMehSer = CN[C@@H](CCO)C(=O)O; NMeV = CN[C@H](C(=O)O)C(C)C; NMeS = CN[C@@H](CO)C(=O)O; Ac6c = NC1(C(=O)O)CCCCC1; Piperidide = C1CCN(*)CC1; Pyrrolidide = C1CCN(*)C1; Ac5c = NC1(C(=O)O)CCCC1; Aze = O=C(O)[C@@H]1CCN1; CH2CMe2OH = CC(C)(O)C*; Meb = Cc1ccc(C*)cc1; X27 = Clc1ccccc1C*; Sar = CNCC(=O)O

What was measured:
[1] = biological target: T1, Kras and SOS1 (biotin-tagged human Kras loaded with GDP, His-tagged human SOS1) (Homo sapiens, UniProt P01116, G12D); test: Protein-protein interaction inhibition between Kras and SOS1 (KrasGl2D-SOS PPI) using AlphaScreen; assay type: binding; conditions: AlphaScreen; biotin-tagged human Kras loaded with GDP, His-tagged human SOS1; read-out: KRAS G12D-SOS PPI IC50
T1 construct: made in house; host or cells: E. coli (stated for Kras only)
T1 sequence (P01116 1-188 isoform P01116-2 G12D): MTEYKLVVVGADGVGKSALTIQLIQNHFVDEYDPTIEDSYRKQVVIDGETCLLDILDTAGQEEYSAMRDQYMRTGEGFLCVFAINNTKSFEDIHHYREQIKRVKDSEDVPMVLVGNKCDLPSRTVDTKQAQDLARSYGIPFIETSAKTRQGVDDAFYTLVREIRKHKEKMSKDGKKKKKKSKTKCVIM
Summary of the method: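 Donor beads (nickel) hold His-SOS1; acceptor beads (streptavidin) hold biotin-Kras bound to GDP. Signal measured at 520-620 nm following 680 nm excitation.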

[2] = test system: Human pancreatic cancer cell line AsPC-1; test: Measurement of AsPC-1 cell growth inhibition (AsPC-1 CGI); assay type: cell-based; conditions: 96 h
Summary of the method: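 AsPC-1 cells in 15% FBS RPMI-1640 were exposed to test compound for 96 hours at 37° C, with CellTiter-Glo as endpoint.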

Structure (SMILES) | IC50 [1] | IC50 [2]
CC[C@H](C)[C@@H]1NC(=O)[C@H](C2CCC2)N(C)C(=O)C[C@@H](C(=O)N2CCCC2)N(C)C(=O)[C@H](C2CCCCC2)N(C)C(=O)C2(CCCC2)NC(=O)[C@@H]2CCCN2C(=O)[C@H](CCc2ccc(C(F)(F)F)c(Cl)c2)NC(=O)CN(C)C(=O)[C@H](Cc2ccc(C(F)(F)F)cc2)N(C)C(=O)CN(C)C(=O)CN(C)C1=O [Compound 73] ([NMeGly(cBu)]I[Sar][Sar][NMePhe(4-CF3)][Sar][hPhe(3-Cl-4-CF3)]P[Ac5c][NMeChg][NMeD]-Pyrrolidide; lactam N-11) | 0.33 nM | 20 to 50 nM
CC[C@H](C)[C@@H]1NC(=O)[C@H](CC(C)C)N(C)C(=O)C[C@@H](C)N(C)C(=O)[C@H](C(C)C)N(C)C(=O)C2(CCCCC2)NC(=O)[C@@H]2CCCN2C(=O)[C@H](CCc2ccc(C(F)(F)F)c(Cl)c2)NC(=O)CN(C)C(=O)[C@H](CC2CCCCC2)N(C)C(=O)CN(C)C(=O)CN(C)C1=O [Compound 81] (cyclo([Ac6c][NMeV][NMedβ3hAla][NMeL]I[Sar][Sar][NMeCha][Sar][hPhe(3-Cl-4-CF3)]P)) | 14 nM | 100 to 500 nM
CC[C@H](C)[C@@H]1NC(=O)[C@H](CC(C)C)N(C)C(=O)C[C@@H](C(=O)N2CCCCC2)N(C)C(=O)[C@H](C(C)C)N(C)C(=O)C2(CCCC2)NC(=O)[C@@H]2CCCN2C(=O)[C@H](CCc2ccc(C(F)(F)F)c(Cl)c2)NC(=O)CN(C)C(=O)[C@H](CC2CCCCC2)N(C)C(=O)[C@@H]2CCN2C(=O)[C@H](COCC(C)(C)O)N(C)C1=O [Compound 86] ([NMeL]I[NMeS](CH2CMe2OH)[Aze][NMeCha][Sar][hPhe(3-Cl-4-CF3)]P[Ac5c][NMeV][NMeD]-Piperidide; lactam N-11) | 9 nM | 100 to 500 nM
CC[C@H](C)[C@@H]1NC(=O)[C@H](C2CCCCC2)N(C)C(=O)C[C@@H](C(=O)N2CCCCC2)N(C)C(=O)[C@H](C(C)C)N(C)C(=O)C2(CCCC2)NC(=O)[C@@H]2CCCN2C(=O)[C@H](CCc2ccc(C(F)(F)F)c(Cl)c2)NC(=O)CN(C)C(=O)[C@H](CC2CCCCC2)N(C)C(=O)CN(C)C(=O)CN(C)C1=O [Compound 106] ([NMeChg]I[Sar][Sar][NMeCha][Sar][hPhe(3-Cl-4-CF3)]P[Ac5c][NMeV][NMeD]-Piperidide; lactam N-11) | 8.9 nM | 100 to 500 nM
CC[C@H](C)[C@@H]1NC(=O)[C@H](CC(C)C)N(C)C(=O)C[C@@H](C(=O)N2CCCCC2)N(C)C(=O)[C@H](CC(C)C)N(C)C(=O)C2(CCCC2)NC(=O)[C@@H]2C[C@@H](OCc3ccccc3Cl)CN2C(=O)[C@H](CCc2ccc(C(F)(F)F)c(F)c2)NC(=O)CN(C)C(=O)[C@H](CC2CCCCC2)N(C)C(=O)CN(C)C(=O)CN(C)C1=O [Compound 2138] ([NMeL]I[Sar][Sar][NMeCha][Sar][hPhe(3-F,4-CF3)][Hyp](X27)[Ac5c][NMeL][NMeD]-Piperidide; lactam N-11) |  | 100 to 500 nM
CC[C@H](C)[C@@H]1NC(=O)[C@H](CC(C)C)N(C)C(=O)C[C@@H](C(=O)N2CCCCC2)N(C)C(=O)[C@H](CC(C)C)N(C)C(=O)C2(CCCC2)NC(=O)[C@@H]2C[C@@H](OCc3ccccc3C)CN2C(=O)[C@H](CCc2ccc(C(F)(F)F)c(F)c2)NC(=O)CN(C)C(=O)[C@H](CC2CCCCC2)N(C)C(=O)CN(C)C(=O)CN(C)C1=O [Compound 2139] ([NMeL]I[Sar][Sar][NMeCha][Sar][hPhe(3-F,4-CF3)][Hyp](oXylylene)[Ac5c][NMeL][NMeD]-Piperidide; lactam N-11) |  | 100 to 500 nM
CC[C@H](C)[C@@H]1NC(=O)[C@H](CC(C)C)N(C)C(=O)C[C@@H](C(=O)N2CCCCC2)N(C)C(=O)[C@H](CC(C)C)N(C)C(=O)C2(CCCC2)NC(=O)[C@@H]2C[C@H](OCc3ccc(C)cc3)CN2C(=O)[C@H](CCc2ccc(C(F)(F)F)c(F)c2)NC(=O)CN(C)C(=O)[C@H](CC2CCCCC2)N(C)C(=O)CN(C)C(=O)CN(C)C1=O [Compound 2140] ([NMeL]I[Sar][Sar][NMeCha][Sar][hPhe(3-F,4-CF3)][cisHyp](Meb)[Ac5c][NMeL][NMeD]-Piperidide; lactam N-11) |  | > 500 nM
CC[C@H](C)[C@@H]1NC(=O)[C@H](CC(C)C)N(C)C(=O)C[C@@H](C(=O)N2CCCCC2)N(C)C(=O)[C@H](CC(C)C)N(C)C(=O)C2(CCCC2)NC(=O)[C@@H]2C[C@H](OCc3cccc(C)c3)CN2C(=O)[C@H](CCc2ccc(C(F)(F)F)c(F)c2)NC(=O)CN(C)C(=O)[C@H](CC2CCCCC2)N(C)C(=O)CN(C)C(=O)CN(C)C1=O [Compound 2141] ([NMeL]I[Sar][Sar][NMeCha][Sar][hPhe(3-F,4-CF3)][cisHyp](mXylylene)[Ac5c][NMeL][NMeD]-Piperidide; lactam N-11) |  | > 500 nM
CC[C@H](C)[C@@H]1NC(=O)[C@H](CC(C)C)N(C)C(=O)C[C@@H](C(=O)N2CCCCC2)N(C)C(=O)[C@H](C2CCCCC2)N(C)C(=O)C2(CCCC2)NC(=O)[C@H](CCOC)N(C)C(=O)[C@H](CCc2ccc(C(F)(F)F)c(Cl)c2)NC(=O)CN(C)C(=O)[C@H](CC2CCCCC2)N(C)C(=O)CN(C)C(=O)CN(C)C1=O [Compound 2168] ([NMeL]I[Sar][Sar][NMeCha][Sar][hPhe(3-Cl-4-CF3)][NMehSer](Me)[Ac5c][NMeChg][NMeD]-Piperidide; lactam N-11) |  | 100 to 500 nM
